Data: ChEMBL document CHEMBL5505975, “Design, synthesis and biological evaluation of CDC20 inhibitors for treatment of triple-negative breast cancer” (Eur J Med Chem, 2024)
pIC50: −log10 of the molar value. Active and inactive are the calls of the source. The rule behind the calls is not given here.

What was measured:
[1] = test system: MDA-MB-231; test: Antiproliferative activity against human MDA-MB-231 cells assessed as reduction in cell viability incubated for 96 hrs by MTT assay; settings: MDA-MB-231, 96 h
[2] = test system: A549; test: Antiproliferative activity against human A549 cells assessed as reduction in cell viability incubated for 96 hrs by MTT assay; settings: A549, 96 h
[3] = test system: MDA-MB-468; test: Antiproliferative activity against human MDA-MB-468 cells assessed as reduction in cell viability incubated for 96 hrs by MTT assay; settings: MDA-MB-468, 96 h
[4] = test system: MDA-MB-231; test: Cell cycle arrest in human MDA-MB-231 cells assessed as G1 phase cells at 20 uM incubated for 24 hrs by PI staining based flow cytometric analysis (reference value: 56.7%); type: functional
[5] = test system: MDA-MB-231; test: Cell cycle arrest in human MDA-MB-231 cells assessed as G2 phase cells at 20 uM incubated for 24 hrs by PI staining based flow cytometric analysis (reference value: 14.6%); type: functional
[6] = test system: MDA-MB-231; test: Cell cycle arrest in human MDA-MB-231 cells assessed as G1 phase cells at 20 uM incubated for 48 hrs by PI staining based flow cytometric analysis (reference value: 56.7%); type: functional
[7] = test system: MDA-MB-231; test: Cell cycle arrest in human MDA-MB-231 cells assessed as G2 phase cells at 20 uM incubated for 48 hrs by PI staining based flow cytometric analysis (reference value: 14.6%); type: functional
[8] = test system: MDA-MB-231; test: Cell cycle arrest in human MDA-MB-231 cells assessed as G2 phase cells at 20 uM incubated for 72 hrs by PI staining based flow cytometric analysis (reference value: 14.6%); type: functional
[9] = test system: MDA-MB-231; test: Cell cycle arrest in human MDA-MB-231 cells assessed as G2 phase cells at 5 uM incubated for 48 hrs by PI staining based flow cytometric analysis (reference value: 7.3%); type: functional
[10] = test system: MDA-MB-231; test: Cell cycle arrest in human MDA-MB-231 cells assessed as S phase cells at 10 uM incubated for 48 hrs by PI staining based flow cytometric analysis (reference value: 16.0%); type: functional
[11] = test system: MDA-MB-231; test: Cell cycle arrest in human MDA-MB-231 cells assessed as G2 phase cells at 10 uM incubated for 48 hrs by PI staining based flow cytometric analysis (reference value: 7.3%); type: functional
[12] = test system: MDA-MB-231; test: Cell cycle arrest in human MDA-MB-231 cells assessed as G2 phase cells at 20 uM incubated for 48 hrs by PI staining based flow cytometric analysis (reference value: 7.3%); type: functional
[13] = test system: MDA-MB-231; test: Effect on cell morphology in human MDA-MB-231 cells at 2.5 to 10 uM incubated for 24 hrs by wound healing assay; type: functional, cell-based; settings: dose 2.5-10 µM
[14] = test system: MDA-MB-231; test: Induction of autophagy in human MDA-MB-231 cells assessed as increase in beclin-1 expression level incubated for 48 hrs by Western blot analysis; type: functional, cell-based; settings: dose 5-20 µM
[15] = test system: MDA-MB-231; test: Induction of apoptosis in human MDA-MB-231 cells assessed as viable cells at 2.5 uM incubated for 48 hrs by Annexin V-FITC/PI staining based flow cytometric analysis (reference value: 95.10%); type: functional; settings: read-out: Activity
[16] = test system: MDA-MB-231; test: Induction of apoptosis in human MDA-MB-231 cells assessed as early apoptotic cells at 2.5 uM incubated for 48 hrs by Annexin V-FITC/PI staining based flow cytometric analysis (reference value: 2.25 %); type: functional
[17] = test system: MDA-MB-231; test: Induction of apoptosis in human MDA-MB-231 cells assessed as late apoptotic cells at 2.5 uM incubated for 48 hrs by Annexin V-FITC/PI staining based flow cytometric analysis (reference value: 1.06%); type: functional
[18] = test system: MDA-MB-231; test: Induction of apoptosis in human MDA-MB-231 cells assessed as necrotic cells at 2.5 uM incubated for 48 hrs by Annexin V-FITC/PI staining based flow cytometric analysis (reference value: 1.63%); type: functional
[19] = test system: MDA-MB-231; test: Induction of apoptosis in human MDA-MB-231 cells assessed as viable cells at 5 uM incubated for 48 hrs by Annexin V-FITC/PI staining based flow cytometric analysis (reference value: 95.10%); type: functional; settings: read-out: Activity
[20] = test system: MDA-MB-231; test: Induction of apoptosis in human MDA-MB-231 cells assessed as early apoptotic cells at 10 uM incubated for 48 hrs by Annexin V-FITC/PI staining based flow cytometric analysis (reference value: 2.25 %); type: functional
[21] = test system: MDA-MB-231; test: Induction of apoptosis in human MDA-MB-231 cells assessed as necrotic cells at 20 uM incubated for 48 hrs by Annexin V-FITC/PI staining based flow cytometric analysis (reference value: 1.63%); type: functional
[22] = test system: 4T1; test: Antitumor activity against mouse 4T1 cells implanted in female BALB/C mouse assessed as inhibition of tumor weight at 20 mg/kg, po administered every two days for 21 days relative to control; type: functional, organism-based; settings: time 21.0 day
[23] = test system: 4T1; test: Antitumor activity against mouse 4T1 cells implanted in female BALB/C mouse assessed as inhibition of tumor weight at 50 mg/kg, po administered every two days for 21 days relative to control; type: functional, organism-based; settings: time 21.0 day
[24] = Toxicity in female BALB/C mouse implanted with mouse 4T1 cells assessed as spleen damage at 20 to 50 mg/kg, po administered every two days for 21 days by H and E staining based analysis; type: organism-based; settings: in vivo, 504 h, dose 20-50 mg/kg, time 21 day
[25] = Toxicity in female BALB/C mouse implanted with mouse 4T1 cells assessed as change in serum CREA level at 20 to 50 mg/kg, po administered every two days for 21 days; type: organism-based; settings: in vivo, 504 h, dose 20-50 mg/kg, time 21 day
[26] = Toxicity in female BALB/C mouse implanted with mouse 4T1 cells assessed as change in serum CK level at 20 to 50 mg/kg, po administered every two days for 21 days; type: organism-based; settings: in vivo, 504 h, dose 20-50 mg/kg, time 21 day
[27] = Toxicity in female BALB/C mouse implanted with mouse 4T1 cells assessed as change in serum ALT level at 20 to 50 mg/kg, iv administered every two days for 21 days; type: organism-based; settings: in vivo, 504 h, dose 20-50 mg/kg, time 21 day
[28] = Toxicity in female BALB/C mouse implanted with mouse 4T1 cells assessed as change in number of platelets at 20 to 50 mg/kg, po administered every two days for 21 days by routine blood analysis; type: organism-based; settings: in vivo, 504 h, dose 20-50 mg/kg, time 21 day
[29] = Toxicity in female BALB/C mouse implanted with mouse 4T1 cells assessed as change in RBC level at 20 to 50 mg/kg, po administered every two days for 21 days by routine blood analysis; type: organism-based; settings: in vivo, 504 h, dose 20-50 mg/kg, time 21 day
[30] = Toxicity in female BALB/C mouse implanted with mouse 4T1 cells assessed as effect on monocytes at 20 to 50 mg/kg, po administered every two days for 21 days by routine blood analysis; type: organism-based; settings: in vivo, 504 h, dose 20-50 mg/kg, time 21 day
[31] = Toxicity in female BALB/C mouse implanted with mouse 4T1 cells assessed as effect on neutrophils at 20 to 50 mg/kg, po administered every two days for 21 days by routine blood analysis; type: organism-based; settings: in vivo, 504 h, dose 20-50 mg/kg, time 21 day
[32] = Toxicity in female BALB/C mouse implanted with mouse 4T1 cells assessed as change in WBC level at 20 to 50 mg/kg, iv administered every two days for 21 days by routine blood analysis; type: organism-based; settings: in vivo, 504 h, dose 20-50 mg/kg, time 21 day
[33] = Toxicity in female BALB/C mouse implanted with mouse 4T1 cells assessed as effect on lymphocytes at 20 to 50 mg/kg, iv administered every two days for 21 days by routine blood analysis; type: organism-based; settings: in vivo, 504 h, dose 20-50 mg/kg, time 21 day
[34] = Toxicity in female BALB/C mouse implanted with mouse 4T1 cells assessed as effect on neutrophils at 20 to 50 mg/kg, iv administered every two days for 21 days by routine blood analysis; type: organism-based; settings: in vivo, 504 h, dose 20-50 mg/kg, time 21 day

With `CCC(=O)NC(n1cnc2c(Nc3cc(OC)c(OC)c(OC)c3)nc(N)nc21)C(Cl)(Cl)Cl` (centres undefined) as the compound, how does the pIC50 [1] read?
The pIC50 was 5.84.

What about the pIC50 [2] of the same compound?
The pIC50 was 5.19.

What about the pIC50 [3] of the same compound?
The pIC50 was 5.14.

And the Activity [4]?
Its Activity is 32.3%.

What about the Activity [5] of the same compound?
Its Activity is 40.1%.

What about the Activity [6] of the same compound?
Its Activity is 41%.

What about the Activity [7] of the same compound?
The Activity was 45.7%.

What about the Activity [8] of the same compound?
The Activity was 51.1%.

What about the Activity [9] of the same compound?
Its Activity is 8.6%.

And the Activity [10]?
The Activity was 11.9%.

And the Activity [11]?
The Activity was 10.6%.

And the Activity [12]?
The Activity was 29.4%.

What about the Activity [13] of the same compound?
Its Activity is “inactive”.

What about the Activity [14] of the same compound?
Its Activity is “Dose-Dependent Effect”.

What about the viability at 2.5 µM [15] of the same compound?
The viability at 2.5 µM was 95.7%.

What about the Activity [16] of the same compound?
Its Activity is 1.34%.

And the Activity [17]?
The Activity was 1.4%.

What about the Activity [18] of the same compound?
The Activity was 1.57%.

And the viability at 5 µM [19]?
Its viability at 5 µM is 92.8%.

What about the Activity [20] of the same compound?
The Activity was 4.54%.

What about the Activity [21] of the same compound?
The Activity was 0.99%.

And the Activity [22]?
Its Activity is “inactive”.

What about the Activity [23] of the same compound?
Its Activity is “inactive”.

And the Activity [24]?
Its Activity is “Non-Toxic”.

And the Activity [25]?
The Activity was “Non-Toxic”.

And the Activity [26]?
Its Activity is “Non-Toxic”.

And the Activity [27]?
The Activity was “Non-Toxic”.

What about the Activity [28] of the same compound?
The Activity was “Non-Toxic”.

What about the Activity [29] of the same compound?
Its Activity is “Non-Toxic”.

And the Activity [30]?
The Activity was “Non-Toxic”.

And the Activity [31]?
Its Activity is “Non-Toxic”.

What about the Activity [32] of the same compound?
The Activity was “Non-Toxic”.

What about the Activity [33] of the same compound?
Its Activity is “Non-Toxic”.

What about the Activity [34] of the same compound?
The Activity was “Non-Toxic”.
